Numbers after ± are expanded uncertainties.
What was measured:
[1] = Liquid
[2] = φn = volume fraction of the nth substance listed; settings: 101 kPa, Liquid; for viscosity: Capillary tube (Ostwald / Ubbelohde) method; for mass density: Pycnometric method

`C1COCO1` [1,3-dioxolane] showed a viscosity ([1]; 298.15 K, 101.33 kPa, Capillary tube (Ostwald / Ubbelohde) method) of 0.575 ± 0.012 mPa·s, a mass density ([1]; 298.15 K, 101.33 kPa, Pycnometric method) of 1058.6 ± 1.2 kg/m3 and a Normal boiling temperature ([1]; Distillation) of 75 ± 1 °C.
Molecule `C1COCO1` [1,3-dioxolane] + O has a viscosity ([2]; 298.15 K, φ2 = 0.3) of 0.9716 ± 0.19 mPa·s, a viscosity ([2]; 298.15 K, φ2 = 0.6) of 1.357 ± 0.27 mPa·s and a viscosity ([2]; 298.15 K, φ2 = 0.9) of 0.9415 ± 0.19 mPa·s. For the same molecule, the mass density ([2]; 298.15 K, φ2 = 0.3) was 1049.2 ± 6 kg/m3, the mass density ([2]; 298.15 K, φ2 = 0.6) was 1039.1 ± 6 kg/m3 and the mass density ([2]; 298.15 K, φ2 = 0.9) was 1009.2 ± 6 kg/m3. For the same molecule, the viscosity ([2]; 308.15 K, φ2 = 0.3) was 0.9314 ± 0.19 mPa·s, the viscosity ([2]; 308.15 K, φ2 = 0.6) was 1.133 ± 0.23 mPa·s and the viscosity ([2]; 308.15 K, φ2 = 0.9) was 0.822 ± 0.16 mPa·s. It also gave a mass density ([2]; 308.15 K, φ2 = 0.3) of 1041.1 ± 6 kg/m3, a mass density ([2]; 308.15 K, φ2 = 0.6) of 1030.7 ± 6 kg/m3 and a mass density ([2]; 308.15 K, φ2 = 0.9) of 1003.3 ± 6 kg/m3.
